EPA's CvTdb concentration-time database

Columns and labels:
Rat [1] = assay: concentration in plasma after dosing; conditions: 0.25 h; dosed: Wyeth-14643; 5.0 mg/kg; oral; Male; Sprague-Dawley
Rat [2] = assay: concentration in plasma after dosing; conditions: 0.25 h; dosed: Wyeth-14643; 5.0 mg/kg; oral; Male; Sprague-Dawley; remark: listed apart in the source
Rat [3] = assay: concentration in plasma after dosing; conditions: 2 h; dosed: Wyeth-14643; 2.0 mg/kg; iv; Male; Sprague-Dawley
Rat [4] = assay: concentration in plasma after dosing; conditions: 2.5 min; dosed: Wyeth-14643; 2.0 mg/kg; iv; Male; Sprague-Dawley
Rat [5] = assay: concentration in plasma after dosing; conditions: dosed: Wyeth-14643, 2.0 mg/kg, oral, Male, Sprague-Dawley
Rat [6] = assay: concentration in heart after dosing; conditions: 5 h; dosed: Bis 2-Chloroethoxy Methane; 20 mg/kg; iv; Female; F344
Rat [7] = assay: concentration in plasma after dosing; conditions: 6 h; dosed: Bis 2-Chloroethoxy Methane; 20 mg/kg; iv; Female; F344
Rat [8] = assay: concentration in thymus after dosing; conditions: 7 h; dosed: Bis 2-Chloroethoxy Methane; 20 mg/kg; iv; Male; F344
Rat [9] = assay: concentration in plasma after dosing; conditions: 40 min; dosed: Bis 2-Chloroethoxy Methane; 20 mg/kg; iv; Male; F344
Rat [10] = assay: concentration in plasma after dosing; conditions: 6 h; dosed: Bis 2-Chloroethoxy Methane; 20 mg/kg; iv; Male; F344
Rat [11] = assay: concentration in plasma after dosing; conditions: 4 h; dosed: Bis 2-Chloroethoxy Methane; 20 mg/kg; iv; Male; F344
Rat [12] = assay: concentration in brain after dosing; conditions: 6 h; dosed: Fluorotelomer alcohol 8+2; 80 mg/kg; oral; Female; Harlan Sprague Dawley
Rat [13] = assay: concentration in plasma after dosing; conditions: dosed: Fluorotelomer alcohol 8+2, 12 mg/kg, iv, Male, F344
Rat [14] = assay: concentration in plasma after dosing; conditions: dosed: Fluorotelomer alcohol 8+2, 12 mg/kg, oral, Male, Harlan Sprague Dawley
Rat [15] = assay: concentration in plasma after dosing; conditions: dosed: Fluorotelomer alcohol 8+2, 12 mg/kg, iv, Male, F344; remark: listed apart in the source
Rat [16] = assay: concentration in plasma after dosing; conditions: dosed: Fluorotelomer alcohol 8+2, 24 mg/kg, oral, Male, Harlan Sprague Dawley
Rat [17] = assay: concentration in plasma after dosing; conditions: 4 h; dosed: Di-n-butyl phthalate; 100 mg/kg; oral; Male; Sprague-Dawley
Rat [18] = assay: concentration in liver after dosing; conditions: 3360 h; dosed: Perfluorodecanoic acid; 10 mg/kg; oral; Male; Harlan Sprague Dawley
Rat [19] = assay: concentration in kidney after dosing; conditions: 864 h; dosed: Perfluorodecanoic acid; 10 mg/kg; oral; Female; Harlan Sprague Dawley
Rat [20] = assay: concentration in kidney after dosing; conditions: 1 h; dosed: Perfluorodecanoic acid; 10 mg/kg; oral; Female; Harlan Sprague Dawley
Rat [21] = assay: concentration in kidney after dosing; conditions: 1848 h; dosed: Perfluorodecanoic acid; 10 mg/kg; oral; Male; Harlan Sprague Dawley
Rat [22] = assay: concentration in plasma after dosing; conditions: dosed: Perfluorodecanoic acid, 2 mg/kg, oral, Male, Harlan Sprague Dawley
Rat [23] = assay: concentration in plasma after dosing; conditions: 12 h; dosed: Primidone; 30 mg/kg; oral; Female; F344
Rat [24] = assay: concentration in liver after dosing; conditions: 3 h; dosed: Thiodiglycolic Acid; 20 mg/kg; iv; Female; Harlan Sprague Dawley
Rat [25] = assay: concentration in plasma after dosing; conditions: 40 min; dosed: Thiodiglycolic Acid; 20 mg/kg; iv; Male; Harlan Sprague Dawley
Rat [26] = assay: concentration in liver after dosing; conditions: 10 h; dosed: Thiodiglycolic Acid; 20 mg/kg; iv; Female; Harlan Sprague Dawley
Rat [27] = assay: concentration in plasma after dosing; conditions: 40 min; dosed: Thiodiglycolic Acid; 20 mg/kg; iv; Female; Harlan Sprague Dawley
Rat [28] = assay: concentration in heart after dosing; conditions: 2 h; dosed: Thiodiglycolic Acid; 20 mg/kg; iv; Male; Harlan Sprague Dawley
Rat [29] = assay: concentration in thymus after dosing; conditions: 10 min; dosed: Thiodiglycolic Acid; 20 mg/kg; iv; Male; F344
Rat [30] = assay: concentration in liver after dosing; conditions: 4 h; dosed: Thiodiglycolic Acid; 20 mg/kg; iv; Male; Harlan Sprague Dawley
Rat [31] = assay: concentration in heart after dosing; conditions: 6.667 h; dosed: Thiodiglycolic Acid; 20 mg/kg; iv; Female; Harlan Sprague Dawley
Rat [32] = assay: concentration in liver after dosing; conditions: 4 h; dosed: Thiodiglycolic Acid; 20 mg/kg; iv; Male; Harlan Sprague Dawley; remark: listed apart in the source
Rat [33] = assay: concentration in heart after dosing; conditions: 20 min; dosed: Thiodiglycolic Acid; 20 mg/kg; iv; Female; F344
Rat [34] = assay: concentration in liver after dosing; conditions: 6.667 h; dosed: Thiodiglycolic Acid; 20 mg/kg; iv; Female; Harlan Sprague Dawley
Rat [35] = assay: concentration in heart after dosing; conditions: 8 h; dosed: Thiodiglycolic Acid; 20 mg/kg; iv; Female; Harlan Sprague Dawley
Rat [36] = assay: concentration in plasma after dosing; conditions: 2 min; dosed: dichloroacetic acid; 10 mg/kg; iv; Male; F344
Rat [37] = assay: concentration in plasma after dosing; conditions: dosed: dichloroacetic acid, 40 mg/kg, oral, Female, Harlan Sprague Dawley

Q: For `Cc1cccc(Nc2cc(Cl)nc(SCC(=O)O)n2)c1C`, which concentration in plasma (Rat [1]) is on record?
A: 2450 ng/mL

Q: What about the concentration in plasma (Rat [2]) of the same molecule?
A: 10600 ng/mL

Q: What about the concentration in plasma (Rat [3]) of the same molecule?
A: 670 ng/mL

Q: And the concentration in plasma (Rat [4])?
A: 29300 ng/mL

Q: What about the concentration in plasma (Rat [5]; 0.25 h) of the same molecule?
A: 889 ng/mL

Q: And the concentration in plasma (Rat [5]; 4 h)?
A: 160 ng/mL

Q: What does the source list for `ClCCOCOCCCl` [Bis 2-Chloroethoxy Methane]?
A: concentration in heart (Rat [6]): 33 ng/g; concentration in plasma (Rat [7]): 16.9 ng/mL; concentration in thymus (Rat [8]): 17 ng/g; concentration in plasma (Rat [9]): 1590 ng/mL; concentration in plasma (Rat [10]): 12.2 ng/mL; concentration in plasma (Rat [11]): 83.3 ng/mL

Q: How did the concentration in brain (Rat [12]) turn out when `OCCC(F)(F)C(F)(F)C(F)(F)C(F)(F)C(F)(F)C(F)(F)C(F)(F)C(F)(F)F` [Fluorotelomer alcohol 8+2] was run?
A: 1310 ng/g

Q: What about the concentration in plasma (Rat [13]; 0.5 h) of the same molecule?
A: 1410 ng/mL

Q: What about the concentration in plasma (Rat [13]; 9 h) of the same molecule?
A: 26.1 ng/mL

Q: What about the concentration in plasma (Rat [14]; 5 min) of the same molecule?
A: 2.04 ng/mL

Q: What about the concentration in plasma (Rat [14]; 3 h) of the same molecule?
A: 147 ng/mL

Q: And the concentration in plasma (Rat [15]; 0.75 h)?
A: 756 ng/mL

Q: And the concentration in plasma (Rat [15]; 12 h)?
A: 13.3 ng/mL

Q: What about the concentration in plasma (Rat [16]; 5 min) of the same molecule?
A: 6.79 ng/mL

Q: And the concentration in plasma (Rat [16]; 9 h)?
A: 23.5 ng/mL

Q: For `CCCCOC(=O)c1ccccc1C(=O)O` [Mono-n-butyl phthalate], which concentration in plasma (Rat [17]) is on record?
A: 3210 ng/mL

Q: What does the source list for `O=C(O)C(F)(F)C(F)(F)C(F)(F)C(F)(F)C(F)(F)C(F)(F)C(F)(F)C(F)(F)C(F)(F)F` [Perfluorodecanoic acid]?
A: concentration in liver (Rat [18]): 6930 ng/g; concentration in kidney (Rat [19]): 16700 ng/g; concentration in kidney (Rat [20]): 20600 ng/g; concentration in kidney (Rat [21]): 6050 ng/g; concentration in plasma (Rat [22]; 2 h): 4900 ng/mL; concentration in plasma (Rat [22]; 528 h): 2050 ng/mL; concentration in plasma (Rat [22]; 3360 h): 516 ng/mL

Q: For `CCC1(c2ccccc2)C(=O)NC(=O)NC1=O` [Phenobarbital], which concentration in plasma (Rat [23]) is on record?
A: 930 ng/mL

Q: `O=C(O)CSCC(=O)O` [Thiodiglycolic Acid] was tested. Which concentration in liver (Rat [24]) did it give?
A: 11500 ng/g

Q: And the concentration in plasma (Rat [25])?
A: 2000 ng/mL

Q: What about the concentration in liver (Rat [26]) of the same molecule?
A: 1650 ng/g

Q: What about the concentration in plasma (Rat [27]) of the same molecule?
A: 4120 ng/mL

Q: And the concentration in heart (Rat [28])?
A: 1310 ng/g

Q: What about the concentration in thymus (Rat [29]) of the same molecule?
A: 6960 ng/g

Q: And the concentration in liver (Rat [30])?
A: 43400 ng/g

Q: And the concentration in heart (Rat [31])?
A: 262 ng/g

Q: And the concentration in liver (Rat [32])?
A: 70900 ng/g

Q: What about the concentration in heart (Rat [33]) of the same molecule?
A: 3820 ng/g

Q: What about the concentration in liver (Rat [34]) of the same molecule?
A: 2190 ng/g

Q: What about the concentration in heart (Rat [35]) of the same molecule?
A: 376 ng/g

Q: Which results are given for `O=C(O)C(Cl)Cl` [dichloroacetic acid]?
A: concentration in plasma (Rat [36]): 22900 ng/mL; concentration in plasma (Rat [37]; 2 min): 787 ng/mL; concentration in plasma (Rat [37]; 1 h): 6320 ng/mL
